Columns and labels:
L3.6pl tumors = assay: In vivo / ex vivo imaging (Pearl Imager) of mice with L3.6pl tumors; conditions: for fluorescence / accumulation in the orthotopic L3.6pl tumor in vivo: 20 μg i.v., 24 h after injection
Procedure: In vivo imaging of the mice with the L3.6pl tumors was performed using the Pearl™ Imager (LI-COR Biosciences, Bad Homburg, Germany). The system uses two lasers (685 and 785 nm) for excitation and a charge-coupled device detector for signal detection. The laser excitation enables a deep tissue penetration. With the near-infrared detection a high sensitivity due to the reduced tissue auto-fluorescence is achieved. In order to standardize the images we made use of the Pearl Cam Software. The animals were fed with chlorophyll-reduced food to reduce the fluorescence background one week before imaging (Regime 210, safe-diets, Augy, France). Prior to imaging the mice were anesthetized with 2.0% isoflurane. Animals were placed on the heated plate of the imager and continuous delivery of isoflurane was achieved through a nose cone in the imaging drawer. Images were captured at white light, 700 and 800 nm. Animals were imaged prior to i.v. peptide injection and 24 h after injection with either DY681-labeled human v6 peptide or DY681-labeled rat v6 peptide as control. Immediately after each imaging session animals were killed, tumor, liver and spleen isolated and scanned ex vivo at white light, 700 and 800 nm.

Met and ERK [1] = assay: HGF induced activation of Met and ERK in L3.6pl cells (Western blot); type: cell-based, human; conditions: L3.6pl cells induced with HGF (FIG. 5A right)
Procedure: (§1) Serum-starved cells (24 hours) were induced with the growth factor HGF (10 ng/mL) at 37° C. for 5 minutes. Where indicated, the cells were treated with peptides (100 ng/ml) prior to induction at 37° C. for 10 minutes (100 ng/mL CD44v6 peptide or control peptide). Following the induction with HGF, cells were washed with ice-cold phosphate-buffered saline (PBS). To detect activated Met and Erk, cells were lysed in sodium dodecyl sulfate (SDS)-sample buffer containing 100 mM dithiothreitol (DTT), boiled and subjected to western blot analysis using antibodies against phospho-Met and ERK. The loading controls were performed on the same blot after stripping (62.5 mM Tris, pH 6.8, 2% SDS, 0.8% DTT) by probing with the Met respectively ERK antibody. Blots were stained using the enhanced chemiluminescence system (Thermo Fisher Scientific, Schwerte, Germany). Bands in western blot analysis were quantified with the program Image J (National Institutes of Health).

L3.6pl cells = assay: Staining of L3.6pl cells with DY681-labeled peptides; type: cell-based, human; conditions: DY681 labeled peptide
Procedure: (§2) ASs6 or L3.6pl cells were seeded at 5,000 cells/well of a Lab-TekR Chamber Slide™ (Nunc, Napierville, Ill., USA). On the following day the cells were washed with cold PBS and fixed with 4% Formalin for 30 min at RT. Unspecific binding was blocked with 1% BSA in PBS for 1 hour at RT. The cells were incubated for 1 hour with the DY681-labeled peptides. After three washing steps with PBS the cover slips were mounted with Fluorescence Mounting Medium (Dako, Glostrup, Denmark) and the immunofluorescence was measured by a laser scanning confocal microscope Leica TCS2 SP2 (Exton, Pa., USA) and processed using Leica confocal software. A 20× objective was used for imaging.

Met = conditions: N to A and E to A mutated pentapeptide; cited from earlier work
Met and ERK [2] = assay: HGF induced activation of Met and Erk in BSp73ASs6 cells (Western blot); type: cell-based, rat; conditions: BSp73ASs6 cells induced with HGF in the presence of the labeled peptide (FIG. 3A right)
Procedure: as §1
Rat pancreatic cancer cells BSp73ASs6 (also designated Ass6) were incubated for 10 min at 37° C. with either ctrl-peptides (SEQ ID No.: 15), non-pegylated v6-peptides (SEQ ID No.: 11) and increasing concentrations of the pegylated peptides, namely PEG-rat control peptide and PEG-rat CD44v6 peptide, before induction with HGF (10 ng/ml; 5 min at 37° C.).
Activation of ERK and Met was determined by standard SDS and Western Blotting techniques using a phospho-Met and phospho-Erk specific antibody (phospho-Met clone D16 cell signaling, phospho-Erk p42/44 cell signaling)
ASs6 cells, serum starved for 24 h, were induced with HGF (10 ng/ml) at 37° C. for 5 min. Where indicated, the cells were treated with PEGylated or non-PEGylated peptides before induction at 37° C. for 10 min (150 nM). Cells were washed with phosphate-buffered saline (PBS) and lysed in boiling sodium dodecyl sulfate (SDS)-sample buffer containing 100 mM dithiothreitol (DTT). Subsequently, lysates were subjected to Western blot analysis using antibodies against phosphorylated Mek and Erk (Cell signaling). The Mek and Erk loading control were performed on the same blot, stripped (62.5 mM Tris pH 6.8, 2% SDS, 0.8% DTT) and probed with the Mek and Erk antibodies. Blots were stained using the enhanced chemiluminescence system (Thermo Fisher Scientific).

BSp73ASs6 cells = assay: Staining of fixed BSp73ASs6 cells with DY681-labeled peptides; type: cell-based, rat; conditions: DY681-labeled peptide for one hour
Procedure: as §2

BSp73ASs6 tumors = conditions: rat
Procedure: In vivo imaging of the subcutaneously grown BSp73ASs6 tumors in BD10 or BDX rats was performed using the near infrared fluorescence (NIRF)-imaging system Optix MX2 (ART, Montreal, Canada) as described earlier (Napp et al., Int J Cancer (2010), 127:1958-1974). To avoid autofluorescence of fur, rats were shaved around the tumor prior to imaging. Subsequently, animals were anesthetized using 2% isoflurane and gently fixed on the devices' heated plate for the entire time of data acquisition. To reduce fluorescence background, rats were fed with chlorophyll-reduced food (Provimi Kliba AG, Kaiseraugst, Switzerland) for one week prior NIRF imaging. All in vivo analyses were preceded by native scans of animals without any injection of the fluorescent probe. […] The rat 11mer had the sequence [sequence] (SEQ ID No.: 12), the mouse 11mer had the sequence [sequence] (SEQ ID No.: 13) and the human 11mer had the sequence [sequence] (SEQ ID No.: 14). All peptides were labeled with the fluorescent dye DY681. Data were acquired at the indicated time after injection of the peptides. For ex vivo monitoring animals were sacrificed after 24 hrs after peptide injection and tumor and organs of interest were scanned ex vivo using Optix MX2.
DY681 fluorescence was measured using excitation at 670 nm in combination with a 700 nm long-pass emission filter. […] Data sets were analyzed with OptiView (ART).

Row | Substance | fluorescence / accumulation in the orthotopic L3.6pl tumor in vivo (L3.6pl tumors) | inhibition of Met activation by DY681 labeled peptide (Met and ERK [2]) | binding to BSp73ASs6 cells in tissue culture (BSp73ASs6 cells) | other results
1 | WFGNRWHEGYR [DY681 human v6 peptide, human v6 11mer labeled with DY681] | accumulated specifically in the tumor | – | – | ex vivo binding to primary tumors, livers (L3.6pl tumors; organs excised 24 h after injection): binding not only to primary tumors but also to areas of the liver; inhibition of Met activation by DY681 labeled peptide (Met and ERK [1]): inhibited Met activation in L3.6pl cells; binding to L3.6pl cells in cell culture (L3.6pl cells): bound to these cells in cell culture
2 | A-R-W-H-A (ARWHA) [pentapeptide with N and E mutated to A] | – | – | – | Met activation (Met): capable of abrogating Met activation
3 | WFENEWQGKNP [rv6 pep Dy681] | No fluorescence was detected | inhibited Met activation | bound to BSp73ASs6 cells in tissue culture | fluorescence in excised tumors and lungs ex vivo (BSp73ASs6 tumors): could only be detected in tumors and in specific areas of the lungs
4 | WFQNGWQGKNP [mv6 pep Dy681, mouse v6 11mer labeled with DY681, control, reference compound] | – | not the mouse peptide inhibited Met activation | not the DY681-labeled mouse v6 peptide bound to BSp73ASs6 cells | –
